From patent publication US20230069886A1, “AROMATIC SULPHONAMIDES DERIVATIVES THAT INHIBITS PDI A3, THEIR SYNTHESIS AND USE” (Uniwersytet Jagiellonski, priority 2020, published 2023)

System: not given
Test: not given
Settings: not given

For `CNc1ccc2cc(S(=O)(=O)N3CC3C(=O)OC)ccc2c1Cl` (stereo not shown) [Compound C-3393, Methyl 1-[[5-chloro-6-(methylamino)-2-naphthyl]sulfonyl]aziridine-2-carboxylate], which melting point is on record?
The melting point was 170 to 172 °C.

Which melting point does the source give for `COC(=O)C1CN1S(=O)(=O)c1ccc2oc(=O)ccc2c1` (stereo not shown) [Compound C-3355, Methyl 1-(2-oxochromen-6-yl)sulfonylaziridine-2-carboxylate] here?
Its melting point is 42 to 44 °C.

Which melting point does the source give for `NC(=O)C1CN1S(=O)(=O)c1ccc(N)cc1` (stereo not shown) [Compound C-3218, 1-(4-Aminophenyl)sulfonylaziridine-2-carboxamide] here?
Its melting point is 139 to 141 °C.

With `NC(=O)C1CN1S(=O)(=O)c1cccnc1` (stereo not shown) [Compound C-3562, 1-(3-pyridylsulfonyl)aziridine-2-carboxamide] as the compound, how does the melting point read?
The melting point was 147 to 149 °C.

For `COC(=O)C1CN1S(=O)(=O)c1ccc([N+](=O)[O-])cc1` (stereo not shown) [Compound C-3212, Methyl 1-(4-nitrophenyl)sulfonylaziridine-2-carboxylate], which melting point is on record?
Its melting point is 106 to 108 °C.

Which melting point does the source give for `COC(=O)C1CN1S(=O)(=O)c1ccc2[nH]c(=O)ccc2c1` (stereo not shown) [Compound C-3350, Methyl 1-[(2-oxo-1H-quinolin-6-yl)sulfonyl]aziridine-2-carboxylate] here?
The melting point was 139 to 141 °C.

System: MDA-MB-231
Test: MTT antiproliferative assay, 48 h, MDA-MB-231
Assay type: cell-based, human
Settings: Homo sapiens, MDA-MB-231, 48-hour exposition, read-out: Cytotoxicity, IC50, μM MDA-MB-231
Experimental: (§1) Anticancer activity of compounds of invention, PDI A3-inhibitors has been tested in vitro in classical antiproliferative assay in various cancer cells lines. Monolayer tumor cell lines MDA-MB-231 (human mammary breast adenocarcinoma), MCF-7 (human breast adenocarcinoma, estrogen-positive), HT-1080 (human fibrosarcoma) and Caco-2 (human colon adenocarcinoma) were cultured in standard medium DMEM (Dulbecco's modified Eagle's medium) (“Sigma”) supplemented with 10% foetal bovine serum (“Sigma”). About 2000-4000 cells per well (depending on line nature) were placed in 96-well plates and after 24 h compounds were added to the wells. Untreated cells were used as a control. The plates were incubated for 48 h, 37° C., 5% CO2. The number of surviving cells was determined using 3-(4,5-dimethylthiazol-2-yl)-2,5-diphenyltetrazolinium bromide (MTT). MTT-test: after incubating culture medium was removed and 200 μL fresh medium with 20 μL MTT (2 mg/mL in HBSS) was added in each well of the plate. After incubation (3 hr., 37° C., 5% CO2), the medium with MTT was removed and 200 μL DMSO were added at once to each sample. The samples were tested at 540 nm on Thermo Scientific Multiskan EX microplate photometer. The half-maximal inhibitory concentration (IC50) of each compound was calculated using Graph Pad Prism® 3.0.

For `CCCCCCc1ccc(S(=O)(=O)N2CC2C(=O)N2CCOCC2)cc1` (stereo not shown) [Compound C-3517, [1-(4-Hexylphenyl)sulfonylaziridin-2-yl]-morpholino-methanone], which IC50 is on record?
Its IC50 is 12 ± 1 µM.

Biological target: T1, PDI A3 (Homo sapiens, UniProt P30101)
T1 construct: purchased Mybiosource; host or cells: E. coli
T1 sequence (P30101 25-505): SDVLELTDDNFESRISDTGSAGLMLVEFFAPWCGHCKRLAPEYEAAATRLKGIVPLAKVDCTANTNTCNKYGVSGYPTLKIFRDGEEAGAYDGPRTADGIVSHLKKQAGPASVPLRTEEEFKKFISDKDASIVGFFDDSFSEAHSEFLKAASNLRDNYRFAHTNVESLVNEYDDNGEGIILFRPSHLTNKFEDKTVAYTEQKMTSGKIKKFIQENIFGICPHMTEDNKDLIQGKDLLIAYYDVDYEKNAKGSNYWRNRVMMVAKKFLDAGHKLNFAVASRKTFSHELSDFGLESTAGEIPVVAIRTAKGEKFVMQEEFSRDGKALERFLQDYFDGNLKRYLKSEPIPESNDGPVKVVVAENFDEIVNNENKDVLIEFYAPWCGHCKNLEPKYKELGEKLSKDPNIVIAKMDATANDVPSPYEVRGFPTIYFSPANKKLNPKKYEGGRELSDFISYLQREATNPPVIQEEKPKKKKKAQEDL
Test: PDI A3 inhibition, insulin turbidimetric assay
Assay type: biochemical
Settings: 10 ug/ml PDI A3, incubated 60 min at 37° C., turbidity at 650 nm; read-out: Inhibition of PDI A3 (EC 50)
Experimental: The inhibitory effects compounds of invention on activity of PDIA3 was assess based on the insulin turbidimetric assay. Enzymatic activity of PDIA3 was confirmed by measuring the turbidity increase at 650 nm due to insulin reduction. The assay mixture was prepared by addition 10 ug/ml PDI A3 (E. coli recombinant protein; Mybiosource), […] phosphate buffer (pH7.6), 1 mM EDTA, 0.087 mM DTT and with or without tested compound and was incubated for 60 min, at 37° C. Reaction was started by addition of insulin and DTT. Final concentration of insulin and DTT in assay mixture were 0.15 mMv and 0.174 mMv, respectively. Turbidity was detected at 650 nm against reference samples without PDJs. The measurements were performed at 650 nm using 120-s recordings.

With `CC(C)(C)c1ccc(S(=O)(=O)N2CC2C(N)=O)cc1` (stereo not shown) [Compound C-3591, 1-(4-tert-Butylphenyl)sulfonylaziridine-2-carboxamide] as the compound, how does the EC50 read?
The EC50 was 29 µM.

With `CN(C)C(=O)C1CN1S(=O)(=O)c1cccc2cc(N(C)C)ccc12` (stereo not shown) [Compound C-3377, 1-[[6-(Dimethylamino)-1-naphthyl]sulfonyl]-N,N-dimethylaziridine-2-carboxamide] as the compound, how does the EC50 read?
The EC50 was 4.3 µM.

Which EC50 does the source give for `COC(=O)C1CN1S(=O)(=O)c1cccnc1` (stereo not shown) [Compound C-3559, Methyl 1-(3-pyridylsulfonyl)aziridine-2-carboxylate] here?
The EC50 was 18.6 µM.

Which EC50 does the source give for `COC(=O)C1CN1S(=O)(=O)c1cccc(C(F)(F)F)c1` (stereo not shown) [Compound C-3305, Methyl 1-[3-(trifluoromethyl)phenyl]sulfonylaziridine-2-carboxylate] here?
The EC50 was greater than 200 µM.

Which EC50 does the source give for `CC(=O)C1CN1S(=O)(=O)c1ccc(C)cc1` (stereo not shown) [Compound C-3263, 1-[1-(p-Tolylsulfonyl)aziridin-2-yl]ethanone] here?
Its EC50 is 98 µM.

With `COC(=O)C1CN1S(=O)(=O)c1cccc(C)c1` (stereo not shown) [Compound C-3303, Methyl 1-(m-tolylsulfonyl)aziridine-2-carboxylate] as the compound, how does the EC50 read?
Its EC50 is greater than 200 µM.

For `CNc1ccc2cc(S(=O)(=O)N3CC3C(=O)OC)ccc2c1Cl` (stereo not shown) [Compound C-3393, Methyl 1-[[5-chloro-6-(methylamino)-2-naphthyl]sulfonyl]aziridine-2-carboxylate], which EC50 is on record?
Its EC50 is 27 µM.

Which EC50 does the source give for `COC(=O)C1CN1S(=O)(=O)c1ccc(C)cc1` (stereo not shown) [Compound C-3161, Methyl 1-(p-tolylsulfonyl)aziridine-2-carboxylate] here?
The EC50 was 27 µM.

With `COC(=O)C1CN1S(=O)(=O)c1ccc(F)cc1F` (stereo not shown) [Compound C-3353, Methyl 1-(2,4-difluorophenyl)sulfonylaziridine-2-carboxylate] as the compound, how does the EC50 read?
The EC50 was 143 µM.

With `CN(C)C(=O)C1CN1S(=O)(=O)c1ccc2cc(N(C)C)ccc2c1` (stereo not shown) [Compound C-3398, 1-[[6-(Dimethylamino)-2-naphthyl]sulfonyl]-N,N-dimethylaziridine-2-carboxamide] as the compound, how does the EC50 read?
Its EC50 is 10.5 µM.

With `CCCCCCc1ccc(S(=O)(=O)N2CC2C(=O)NC)cc1` (stereo not shown) [Compound C-3380, 1-(4-Hexylphenyl)sulfonyl-N-methyl-aziridine-2-carboxamide] as the compound, how does the EC50 read?
Its EC50 is 37 µM.

With `COC(=O)[C@@H]1CN1S(=O)(=O)c1cccc2cc(N(C)C)ccc12` (stereo partly drawn) [Compound C-3548, Methyl (2S)-1-[[6-(dimethylamino)-1-naphthyl]sulfonyl]aziridine-2-carboxylate] as the compound, how does the EC50 read?
The EC50 was 5.3 µM.

For `CN(C)C(=O)C1CN1S(=O)(=O)c1ccc(N(C)C)cc1` (stereo not shown) [Compound C-3357, 1-[4-(Dimethylamino)phenyl]sulfonyl-N,N-dimethyl-aziridine-2-carboxamide], which EC50 is on record?
The EC50 was greater than 200 µM.

With `COC(=O)C1CN1S(=O)(=O)c1ccc2oc(=O)ccc2c1` (stereo not shown) [Compound C-3355, Methyl 1-(2-oxochromen-6-yl)sulfonylaziridine-2-carboxylate] as the compound, how does the EC50 read?
The EC50 was 61 µM.

With `CCCCCCc1ccc(S(=O)(=O)N2CC2C(=O)N2CCCC2)cc1` (stereo not shown) [Compound C-3511, [1-(4-Hexylphenyl)sulfonylaziridin-2-yl]-pyrrolidin-1-yl-methanone] as the compound, how does the EC50 read?
The EC50 was 102 µM.

For `CN(C)C(=O)C1CN1S(=O)(=O)c1ccc(C2CCCCC2)cc1` (stereo not shown) [Compound C-3384, 1-(4-Cyclohexylphenyl)sulfonyl-N,N-dimethyl-aziridine-2-carboxamide], which EC50 is on record?
Its EC50 is 11.7 µM.

With `NC(=O)C1CN1S(=O)(=O)c1ccccc1` (stereo not shown) [Compound C-3532, 1-(Benzenesulfonyl)aziridine-2-carboxamide] as the compound, how does the EC50 read?
The EC50 was 9.3 µM.

Which EC50 does the source give for `CCCCCCCCCCCCc1ccc(S(=O)(=O)N2CC2C(=O)OC)cc1` (stereo not shown) [Compound C-3270, Methyl 1-(4-dodecylphenyl)sulfonylaziridine-2-carboxylate] here?
The EC50 was greater than 200 µM.

With `NC(=O)C1CN1S(=O)(=O)c1cccnc1` (stereo not shown) [Compound C-3562, 1-(3-pyridylsulfonyl)aziridine-2-carboxamide] as the compound, how does the EC50 read?
Its EC50 is 56 µM.

Which EC50 does the source give for `COC(=O)C1CN1S(=O)(=O)c1cccc2ccccc12` (stereo not shown) [Compound C-3311, Methyl 1-(1-naphthylsulfonyl)aziridine-2-carboxylate] here?
Its EC50 is 90 µM.

Which EC50 does the source give for `Cc1ccc(S(=O)(=O)N2CC2C#N)cc1` (stereo not shown) [Compound C-3314, 1-(p-Tolylsulfonyl)aziridine-2-carbonitrile] here?
The EC50 was 24 µM.

For `COC(=O)[C@@H]1CN1S(=O)(=O)c1ccc(C)cc1` (stereo partly drawn) [Compound C-3535, Methyl (2S)-1-(p-tolylsulfonyl)aziridine-2-carboxylate], which EC50 is on record?
Its EC50 is 6.8 µM.

With `COC(=O)C1CN1S(=O)(=O)c1ccc(C)cc1F` (stereo not shown) [Compound C-3297, Methyl 1-(2-fluoro-4-methyl-phenyl)sulfonylaziridine-2-carboxylate] as the compound, how does the EC50 read?
The EC50 was greater than 200 µM.

With `CN(C)C(=O)C1CN1S(=O)(=O)c1ccc(F)cc1F` (stereo not shown) [Compound C-3403, 1-(2,4-Difluorophenyl)sulfonyl-N,N-dimethyl-aziridine-2-carboxamide] as the compound, how does the EC50 read?
The EC50 was 24 µM.

Which EC50 does the source give for `COC(=O)C1CN1S(=O)(=O)c1ccc(C(F)(F)F)cc1` (stereo not shown) [Compound C-3256, Methyl 1-[4-(trifluoromethyl)phenyl]sulfonylaziridine-2-carboxylate] here?
Its EC50 is greater than 200 µM.

With `COC(=O)C1CN1S(=O)(=O)c1ccc([N+](=O)[O-])cc1` (stereo not shown) [Compound C-3212, Methyl 1-(4-nitrophenyl)sulfonylaziridine-2-carboxylate] as the compound, how does the EC50 read?
The EC50 was 32 µM.

For `Cc1ccc(S(=O)(=O)N2CC2C(N)=O)cc1` (stereo not shown) [Compound C-3220, 1-(p-Tolylsulfonyl)aziridine-2-carboxamide], which EC50 is on record?
Its EC50 is 22 µM.

With `CN(C)C(=O)C1CN1S(=O)(=O)c1ccc(N(C)C)c2ccccc12` (stereo not shown) [Compound C-3385, 1-[[4-(Dimethylamino)-1-naphthyl]sulfonyl]-N,N-dimethylaziridine-2-carboxamide] as the compound, how does the EC50 read?
The EC50 was 11.1 µM.

With `CCCCCc1ccc(S(=O)(=O)N2CC2C(=O)OC)cc1` (stereo not shown) [Compound C-3281, Methyl 1-(4-pentylphenyl)sulfonylaziridine-2-carboxylate] as the compound, how does the EC50 read?
Its EC50 is greater than 200 µM.

For `COC(=O)C1CN1S(=O)(=O)c1ccc2[nH]c(=O)ccc2c1` (stereo not shown) [Compound C-3350, Methyl 1-[(2-oxo-1H-quinolin-6-yl)sulfonyl]aziridine-2-carboxylate], which EC50 is on record?
Its EC50 is 48 µM.

For `CCOC(=O)C1CN1S(=O)(=O)c1ccc(C)cc1` (stereo not shown) [Compound C-3537, Ethyl 1-(p-tolylsulfonyl)aziridine-2-carboxylate], which EC50 is on record?
Its EC50 is 30 µM.

For `COC(=O)[C@H]1CN1S(=O)(=O)c1cccc2cc(N(C)C)ccc12` (stereo partly drawn) [Compound C-3570, Methyl (2R)-1-[[6-(dimethylamino)-1-naphthyl]sulfonyl]aziridine-2-carboxylate], which EC50 is on record?
The EC50 was 68.4 µM.

With `CCCCc1ccc(S(=O)(=O)N2CC2C(C)=O)cc1` (stereo not shown) [Compound C-3272, 1-[1-(4-Butylphenyl)sulfonylaziridin-2-yl]ethanone] as the compound, how does the EC50 read?
Its EC50 is 43 µM.

System: MCF-7
Test: MTT antiproliferative assay, 48 h, MCF-7
Assay type: cell-based, human
Settings: Homo sapiens, MCF7, 48-hour exposition, read-out: Cytotoxicity, IC50, μM MCF-7
Experimental: as §1

With `CN(C)C(=O)C1CN1S(=O)(=O)c1cccc2cc(N(C)C)ccc12` (stereo not shown) [Compound C-3377, 1-[[6-(Dimethylamino)-1-naphthyl]sulfonyl]-N,N-dimethylaziridine-2-carboxamide] as the compound, how does the IC50 read?
Its IC50 is 4.8 ± 0.1 µM.

With `COC(=O)C1CN1S(=O)(=O)c1ccc(C(C)(C)C)cc1` (stereo not shown) [Compound C-3290, Methyl 1-(4-tert-butylphenyl)sulfonylaziridine-2-carboxylate] as the compound, how does the IC50 read?
The IC50 was 29 ± 4 µM.

For `CCCCCCc1ccc(S(=O)(=O)N2CC2C(=O)OC)cc1` (stereo not shown) [Compound C-3287, Methyl 1-(4-hexylphenyl)sulfonylaziridine-2-calboxylate], which IC50 is on record?
Its IC50 is 123 ± 17 µM.
